Assay results: the supplement of paper PMC6045584
± gives the standard deviation of the averaged measurements.

Experiments:
BI-2536 = compound: CC[C@@H]1C(=O)N(C)c2cnc(Nc3ccc(C(=O)NC4CCN(C)CC4)cc3OC)nc2N1C1CCCC1 [BI-2536]; experiment: surviving fraction relative to DMSO-only wells; higher = less growth inhibition; details: exposure time: 5 days
Method in brief: (§1)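 Viability values are CellTiter-Glo luminescence readings, given as surviving fraction against the median of DMSO-only wells. The readings were taken after 10 minutes at room temperature, following five days of continuous exposure to inhibitors at 0.5, 1, 5, 10, 50, 100, 500 and 1000 nM that began 24 hours after log-phase tumour cell lines were seeded at 250–500 cells per well in 384-well plates. Every line was screened three times and kept only if replicate Pearson r >0.7 and median Z' >0.3.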

SAPACITABINE = compound: CCCCCCCCCCCCCCCC(=O)Nc1ccn([C@@H]2O[C@H](CO)[C@@H](O)[C@@H]2C#N)c(=O)n1 [SAPACITABINE]; experiment: as above; details: exposure time: 5 days
Method in brief: as §1

Row | Test System | surviving fraction (BI-2536; 0.5 nM) | surviving fraction (BI-2536; 1 nM) | surviving fraction (BI-2536; 5 nM) | surviving fraction (BI-2536; 10 nM) | surviving fraction (BI-2536; 50 nM) | surviving fraction (BI-2536; 100 nM) | surviving fraction (BI-2536; 500 nM) | surviving fraction (BI-2536; 1000 nM) | surviving fraction (SAPACITABINE; 0.5 nM) | surviving fraction (SAPACITABINE; 1 nM) | surviving fraction (SAPACITABINE; 5 nM) | surviving fraction (SAPACITABINE; 10 nM) | surviving fraction (SAPACITABINE; 50 nM) | surviving fraction (SAPACITABINE; 100 nM) | surviving fraction (SAPACITABINE; 500 nM) | surviving fraction (SAPACITABINE; 1000 nM)
1 | 93VU HEADNECK | 1.11 ± 0.12 | 1.05 ± 0.06 | 0.507 ± 0.077 | 0.27 ± 0.012 | 0.258 ± 0.0056 | 0.333 ± 0.056 | 0.205 ± 0.023 | 0.123 ± 0.0066 | 0.75 ± 0.041 | 0.764 ± 0.051 | 0.862 ± 0.059 | 0.849 ± 0.16 | 1.02 ± 0.026 | 0.927 ± 0.049 | 0.74 ± 0.086 | 0.611 ± 0.017
2 | HCC1954 BREAST | 0.883 ± 0.13 | 0.766 ± 0.2 | 0.245 ± 0.035 | 0.235 ± 0.057 | 0.433 ± 0.0095 | 0.781 ± 0.0014 | 0.89 ± 0.035 | 0.699 ± 0.014 | 0.436 ± 0.047 | 0.437 ± 0.016 | 0.445 ± 0.058 | 0.559 ± 0.1 | 0.464 ± 0.037 | 0.371 ± 0.014 | 0.425 ± 0.0067 | 0.343 ± 0.035
3 | S68 BREAST | 0.884 ± 0.16 | 0.839 ± 0.12 | 0.343 ± 0.067 | 0.271 ± 0.039 | 0.166 ± 0.013 | 0.116 ± 0.04 | 0.0923 ± 0.022 | 0.067 ± 0.015 | 0.821 ± 0.029 | 0.642 ± 0.021 | 0.675 ± 0.066 | 0.617 ± 0.094 | 0.64 ± 0.22 | 0.462 ± 0.039 | 0.296 ± 0.032 | 0.284 ± 0.02
4 | HCC78 LUNG | 0.932 ± 0.33 | 0.781 ± 0.13 | 0.16 ± 0.03 | 0.091 ± 0.031 | 0.0883 ± 0.011 | 0.156 ± 0.023 | 0.112 ± 0.021 | 0.0973 ± 0.01 | 0.831 ± 0.058 | 0.916 ± 0.25 | 0.913 ± 0.038 | 0.354 ± 0.035 | 0.445 ± 0.095 | 0.123 ± 0.052 | 0.039 ± 0.0087 | 0.0357 ± 0.0059
5 | VCAP PROSTATE | 0.925 ± 0.13 | 0.243 ± 0.0099 | 0.0727 ± 0.012 | 0.0763 ± 0.015 | 0.154 ± 0.031 | 0.228 ± 0.031 | 0.07 ± 0.0027 | 0.0443 ± 0.013 | 0.892 ± 0.048 | 0.935 ± 0.07 | 0.959 ± 0.085 | 0.91 ± 0.055 | 1.06 ± 0.038 | 1.03 ± 0.1 | 0.95 ± 0.015 | 0.791 ± 0.1
6 | MCF7 BREAST | 0.911 ± 0.071 | 0.913 ± 0.07 | 0.797 ± 0.074 | 0.445 ± 0.018 | 0.408 ± 0.021 | 0.38 ± 0.022 | 0.394 ± 0.01 | 0.319 ± 0.0042 | 0.826 ± 0.037 | 0.803 ± 0.02 | 0.807 ± 0.015 | 0.716 ± 0.022 | 0.923 ± 0.028 | 0.833 ± 0.046 | 0.705 ± 0.033 | 0.538 ± 0.0081
7 | SIHA CERVIX | 1.11 ± 0.027 | 1.04 ± 0.065 | 0.351 ± 0.025 | 0.263 ± 0.031 | 0.262 ± 0.016 | 0.301 ± 0.0078 | 0.214 ± 0.014 | 0.147 ± 0.015 | 0.907 ± 0.068 | 0.863 ± 0.03 | 0.895 ± 0.044 | 0.91 ± 0.021 | 1.02 ± 0.026 | 0.972 ± 0.11 | 0.739 ± 0.046 | 0.641 ± 0.035
8 | HCC202 BREAST | 0.938 ± 0.18 | 0.952 ± 0.097 | 0.421 ± 0.034 | 0.345 ± 0.037 | 0.538 ± 0.033 | 0.502 ± 0.12 | 0.379 ± 0.044 | 0.306 ± 0.062 | 0.86 ± 0.17 | 0.93 ± 0.091 | 1.04 ± 0.38 | 0.761 ± 0.21 | 1.08 ± 0.37 | 0.904 ± 0.0085 | 0.911 ± 0.15 | 0.851 ± 0.048
9 | A549 LUNG | 1.02 ± 0.056 | 1 ± 0.034 | 0.48 ± 0.016 | 0.28 ± 0.0067 | 0.133 ± 0.0046 | 0.0943 ± 0.0074 | 0.0457 ± 0.0071 | 0.039 ± 0.003 | 0.906 ± 0.026 | 0.906 ± 0.023 | 0.908 ± 0.021 | 0.906 ± 0.013 | 0.87 ± 0.022 | 0.666 ± 0.035 | 0.416 ± 0.001 | 0.308 ± 0.034
10 | SAOS2 BONE | 1.03 ± 0.036 | 0.875 ± 0.025 | 0.083 ± 0.0052 | 0.0753 ± 0.0023 | 0.146 ± 0.0046 | 0.194 ± 0.015 | 0.129 | 0.075 | 0.806 ± 0.032 | 0.811 ± 0.019 | 0.875 ± 0.029 | 0.779 ± 0.057 | 0.776 ± 0.013 | 0.566 ± 0.071 | 0.199 ± 0.018 | 0.153 ± 0.017
